Experimental data as given in ChEMBL document CHEMBL3885861, “Open TG-GATES”.

Species: Rattus norvegicus
Assay: Open TG-GATES - Regimen: Single
Format: toxicity, organism-based, Sprague-Dawley
Design: regimen Single, gender Male, age 6 weeks
Conditions: in vivo, po, route gavage; for APTT / Bas / Eos / Fbg / Hb / Ht / Lym / MCH / MCHC / MCV / Mono / Neu / PT / Plat / RBC / Ret / WBC: tissue Blood; for KIDNEY_L / KIDNEY_R / KIDNEY_TOTAL: tissue Kidney; for LIVER: tissue Liver; for ALP / ALT / AST / CRE / DBIL / GLC / IP / K / LDH / Na / PL / RALB / TBIL / TC / TP / gamma-GTP: tissue Plasma
[1] = 300 mg/kg, 3 h, dose level Middle
[2] = 300 mg/kg, 6 h, dose level Middle
[3] = 300 mg/kg, 9 h, dose level Middle
[4] = 300 mg/kg, 24 h, dose level Middle
[5] = 1000 mg/kg, 3 h, dose level High
[6] = 1000 mg/kg, 6 h, dose level High
[7] = 1000 mg/kg, 9 h, dose level High
[8] = 1000 mg/kg, 24 h, dose level High

Structure (SMILES): Clc1ccccc1CN1CCc2sccc2C1 [TICLOPIDINE]
- TERMINAL_BW [1]: 211.8 g
- APTT [1]: 19.5 s
- Bas [1]: 0%
- Eos [1]: 1%
- Fbg [1]: 220.8 mg/dL
- Hb [1]: 13.1 g/dL
- Ht [1]: 37.1%
- Lym [1]: 73.4%
- MCH [1]: 21.8 pg
- MCHC [1]: 35.3%
- MCV [1]: 61.6 fL
- Mono [1]: 2.8%
- Neu [1]: 21.6%
- PT [1]: 12.2 s
- Plat [1]: 124.1 x10_4/uL
- RBC [1]: 602.2 x10_4/ul
- Ret [1]: 8.4%
- WBC [1]: 73.9 x10_2/uL
- KIDNEY_L [1]: 0.9 g
- KIDNEY_R [1]: 1 g
- KIDNEY_TOTAL [1]: 1.9 g
- LIVER [1]: 9 g
- ALP [1]: 999 IU/L
- ALT [1]: 36.2 IU/L
- AST [1]: 74 IU/L
- CRE [1]: 0.4 mg/dL
- DBIL [1]: 0.078 mg/dL
- GLC [1]: 194.2 mg/dL
- IP [1]: 10.5 mg/dL
- K [1]: 3.7 meq/L
- LDH [1]: 161.4 IU/L
- Na [1]: 141 meq/L
- PL [1]: 129.2 mg/dL
- RALB [1]: 3.3 g/dL
- TBIL [1]: 0.1 mg/dL
- TC [1]: 72.6 mg/dL
- TP [1]: 5.4 g/dL
- gamma-GTP [1]: 0.8 IU/L
- TERMINAL_BW [2]: 209.7 g
- APTT [2]: 18.1 s
- Bas [2]: 0.2%
- Eos [2]: 0.8%
- Fbg [2]: 226.8 mg/dL
- Hb [2]: 13.5 g/dL
- Ht [2]: 39.1%
- Lym [2]: 77%
- MCH [2]: 21.1 pg
- MCHC [2]: 34.5%
- MCV [2]: 61.3 fL
- Mono [2]: 2.4%
- Neu [2]: 18.4%
- PT [2]: 12.1 s
- Plat [2]: 131 x10_4/uL
- RBC [2]: 637.6 x10_4/ul
- Ret [2]: 7.8%
- WBC [2]: 76.9 x10_2/uL
- KIDNEY_L [2]: 1 g
- KIDNEY_R [2]: 1 g
- KIDNEY_TOTAL [2]: 1.9 g
- LIVER [2]: 9.1 g
- ALP [2]: 909.6 IU/L
- ALT [2]: 34 IU/L
- AST [2]: 74.6 IU/L
- CRE [2]: 0.4 mg/dL
- DBIL [2]: 0.078 mg/dL
- GLC [2]: 192 mg/dL
- IP [2]: 10 mg/dL
- K [2]: 3.9 meq/L
- LDH [2]: 213 IU/L
- Na [2]: 141 meq/L
- PL [2]: 134 mg/dL
- RALB [2]: 3.4 g/dL
- TBIL [2]: 0.1 mg/dL
- TC [2]: 76.2 mg/dL
- TP [2]: 5.5 g/dL
- gamma-GTP [2]: 1.2 IU/L
- TERMINAL_BW [3]: 208.6 g
- APTT [3]: 18.8 s
- Bas [3]: 0.2%
- Eos [3]: 1%
- Fbg [3]: 226.8 mg/dL
- Hb [3]: 13.3 g/dL
- Ht [3]: 37.6%
- Lym [3]: 76%
- MCH [3]: 21.4 pg
- MCHC [3]: 35.3%
- MCV [3]: 60.7 fL
- Mono [3]: 2%
- Neu [3]: 20.2%
- PT [3]: 12.7 s
- Plat [3]: 132.7 x10_4/uL
- RBC [3]: 621.4 x10_4/ul
- Ret [3]: 7.2%
- WBC [3]: 64 x10_2/uL
- KIDNEY_L [3]: 0.9 g
- KIDNEY_R [3]: 1 g
- KIDNEY_TOTAL [3]: 1.9 g
- LIVER [3]: 8.3 g
- ALP [3]: 859.4 IU/L
- ALT [3]: 31.2 IU/L
- AST [3]: 65.4 IU/L
- CRE [3]: 0.4 mg/dL
- DBIL [3]: 0.072 mg/dL
- GLC [3]: 197 mg/dL
- IP [3]: 9.8 mg/dL
- K [3]: 3.9 meq/L
- LDH [3]: 129.6 IU/L
- Na [3]: 142 meq/L
- PL [3]: 129 mg/dL
- RALB [3]: 3.3 g/dL
- TBIL [3]: 0.1 mg/dL
- TC [3]: 69.8 mg/dL
- TP [3]: 5.5 g/dL
- gamma-GTP [3]: 1.2 IU/L
- TERMINAL_BW [4]: 212.9 g
- APTT [4]: 19.8 s
- Bas [4]: 0.4%
- Eos [4]: 1%
- Fbg [4]: 228.2 mg/dL
- Hb [4]: 14.1 g/dL
- Ht [4]: 39.5%
- Lym [4]: 80.8%
- MCH [4]: 22.1 pg
- MCHC [4]: 35.6%
- MCV [4]: 62.2 fL
- Mono [4]: 2.4%
- Neu [4]: 14.6%
- PT [4]: 12.1 s
- Plat [4]: 128.1 x10_4/uL
- RBC [4]: 635.4 x10_4/ul
- Ret [4]: 6.1%
- WBC [4]: 76.1 x10_2/uL
- KIDNEY_L [4]: 1 g
- KIDNEY_R [4]: 1 g
- KIDNEY_TOTAL [4]: 2 g
- LIVER [4]: 9.5 g
- ALP [4]: 1118.8 IU/L
- ALT [4]: 35.2 IU/L
- AST [4]: 66.6 IU/L
- CRE [4]: 0.4 mg/dL
- DBIL [4]: 0.078 mg/dL
- GLC [4]: 182.2 mg/dL
- IP [4]: 8.7 mg/dL
- K [4]: 4 meq/L
- LDH [4]: 120 IU/L
- Na [4]: 142 meq/L
- PL [4]: 146.6 mg/dL
- RALB [4]: 3.5 g/dL
- TBIL [4]: 0.1 mg/dL
- TC [4]: 83.4 mg/dL
- TP [4]: 5.6 g/dL
- gamma-GTP [4]: 1 IU/L
- TERMINAL_BW [5]: 212.3 g
- APTT [5]: 17.9 s
- Bas [5]: 0.2%
- Eos [5]: 1%
- Fbg [5]: 220.2 mg/dL
- Hb [5]: 13 g/dL
- Ht [5]: 36.9%
- Lym [5]: 73.2%
- MCH [5]: 21.4 pg
- MCHC [5]: 35.3%
- MCV [5]: 60.7 fL
- Mono [5]: 2.8%
- Neu [5]: 22.4%
- PT [5]: 11.8 s
- Plat [5]: 128.4 x10_4/uL
- RBC [5]: 609.4 x10_4/ul
- Ret [5]: 8.6%
- WBC [5]: 61.1 x10_2/uL
- KIDNEY_L [5]: 0.9 g
- KIDNEY_R [5]: 0.9 g
- KIDNEY_TOTAL [5]: 1.9 g
- LIVER [5]: 9 g
- ALP [5]: 991.8 IU/L
- ALT [5]: 36 IU/L
- AST [5]: 71.4 IU/L
- CRE [5]: 0.4 mg/dL
- DBIL [5]: 0.076 mg/dL
- GLC [5]: 196.4 mg/dL
- IP [5]: 10.7 mg/dL
- K [5]: 3.8 meq/L
- LDH [5]: 147.4 IU/L
- Na [5]: 140.4 meq/L
- PL [5]: 122 mg/dL
- RALB [5]: 3.3 g/dL
- TBIL [5]: 0.1 mg/dL
- TC [5]: 69.8 mg/dL
- TP [5]: 5.5 g/dL
- gamma-GTP [5]: 0.8 IU/L
- TERMINAL_BW [6]: 211.9 g
- APTT [6]: 19.4 s
- Bas [6]: 0%
- Eos [6]: 1%
- Fbg [6]: 230.6 mg/dL
- Hb [6]: 13.5 g/dL
- Ht [6]: 38.4%
- Lym [6]: 71.8%
- MCH [6]: 21.6 pg
- MCHC [6]: 35.1%
- MCV [6]: 61.4 fL
- Mono [6]: 2%
- Neu [6]: 24.6%
- PT [6]: 12.2 s
- Plat [6]: 118.7 x10_4/uL
- RBC [6]: 625.2 x10_4/ul
- Ret [6]: 8.6%
- WBC [6]: 69.6 x10_2/uL
- KIDNEY_L [6]: 0.9 g
- KIDNEY_R [6]: 0.9 g
- KIDNEY_TOTAL [6]: 1.8 g
- LIVER [6]: 8.7 g
- ALP [6]: 863 IU/L
- ALT [6]: 31 IU/L
- AST [6]: 69 IU/L
- CRE [6]: 0.4 mg/dL
- DBIL [6]: 0.082 mg/dL
- GLC [6]: 190.8 mg/dL
- IP [6]: 9.5 mg/dL
- K [6]: 3.8 meq/L
- LDH [6]: 196.2 IU/L
- Na [6]: 141.8 meq/L
- PL [6]: 149.8 mg/dL
- RALB [6]: 3.4 g/dL
- TBIL [6]: 0.1 mg/dL
- TC [6]: 91 mg/dL
- TP [6]: 5.7 g/dL
- gamma-GTP [6]: 1 IU/L
- TERMINAL_BW [7]: 212.4 g
- APTT [7]: 18.1 s
- Bas [7]: 0.2%
- Eos [7]: 0.6%
- Fbg [7]: 228.8 mg/dL
- Hb [7]: 13.6 g/dL
- Ht [7]: 38.4%
- Lym [7]: 79.6%
- MCH [7]: 21.5 pg
- MCHC [7]: 35.4%
- MCV [7]: 60.9 fL
- Mono [7]: 2.2%
- Neu [7]: 16.4%
- PT [7]: 12.4 s
- Plat [7]: 132.4 x10_4/uL
- RBC [7]: 629.8 x10_4/ul
- Ret [7]: 7.3%
- WBC [7]: 61.3 x10_2/uL
- KIDNEY_L [7]: 1 g
- KIDNEY_R [7]: 0.9 g
- KIDNEY_TOTAL [7]: 1.9 g
- LIVER [7]: 8.8 g
- ALP [7]: 1127.2 IU/L
- ALT [7]: 25.6 IU/L
- AST [7]: 65.2 IU/L
- CRE [7]: 0.4 mg/dL
- DBIL [7]: 0.076 mg/dL
- GLC [7]: 201.4 mg/dL
- IP [7]: 10 mg/dL
- K [7]: 3.8 meq/L
- LDH [7]: 200.8 IU/L
- Na [7]: 142.4 meq/L
- PL [7]: 141.4 mg/dL
- RALB [7]: 3.6 g/dL
- TBIL [7]: 0.1 mg/dL
- TC [7]: 74.8 mg/dL
- TP [7]: 5.6 g/dL
- gamma-GTP [7]: 1 IU/L
- TERMINAL_BW [8]: 208.4 g
- APTT [8]: 22.1 s
- Bas [8]: 0.4%
- Eos [8]: 1.2%
- Fbg [8]: 209 mg/dL
- Hb [8]: 13.9 g/dL
- Ht [8]: 38.9%
- Lym [8]: 80.8%
- MCH [8]: 21.4 pg
- MCHC [8]: 35.7%
- MCV [8]: 59.9 fL
- Mono [8]: 1.8%
- Neu [8]: 15%
- PT [8]: 13.1 s
- Plat [8]: 129.7 x10_4/uL
- RBC [8]: 650 x10_4/ul
- Ret [8]: 5.9%
- WBC [8]: 63.6 x10_2/uL
- KIDNEY_L [8]: 1 g
- KIDNEY_R [8]: 0.9 g
- KIDNEY_TOTAL [8]: 1.9 g
- LIVER [8]: 9.6 g
- ALP [8]: 1071.8 IU/L
- ALT [8]: 27.8 IU/L
- AST [8]: 64.6 IU/L
- CRE [8]: 0.5 mg/dL
- DBIL [8]: 0.084 mg/dL
- GLC [8]: 196.4 mg/dL
- IP [8]: 8.8 mg/dL
- K [8]: 3.8 meq/L
- LDH [8]: 141 IU/L
- Na [8]: 142 meq/L
- PL [8]: 143 mg/dL
- RALB [8]: 3.6 g/dL
- TBIL [8]: 0.1 mg/dL
- TC [8]: 86 mg/dL
- TP [8]: 5.7 g/dL
- gamma-GTP [8]: 1.2 IU/L
